The values that follow come from US20020137929A1, “1 - (3-heterocyclylphenyl) isothiourea, -isourea, -guanidine and -amidine herbicidal agents” (Intellectual Property Department, BASF Aktiengesellschaft, priority 1998, published 2002).

One assay relates to CYPSE (Flatsedge). Briefly: Preemergence weed control under flooded paddy conditions. It is filed as in vivo, Cyperus serotinus. As to conditions: rated 3-4 weeks after treatment. The method in brief:
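Greenhouse paddy assay. Acetone/water (50/50 v/v) solutions dosed into flood water, equivalent to about 0.0313 to 0.500 kg/ha active ingredient, over seeds planted 0.5 cm deep in silt loam. Score: 0-9 visual, based on stand, vigor, malformation, size and chlorosis, 3 to 4 weeks after treatment.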

The subject of the next assay is ECHCG (Barnyardgrass). Briefly: Postemergence herbicidal evaluation. It is filed as in vivo, Echinochloa crus-galli. The conditions noted are these: postemergence. An outline of the steps:
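Two-week seedlings sprayed postemergence at 40 psi; formulation: 1:1 acetone/water, 0.5% TWEEN 20; application ≈0.0156–0.500 kg/ha. Greenhouse grow-out, then 0–9 visual scoring at 4–5 weeks.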

Another assay has as its system ORYSAT (Rice, Tebonnet). Briefly: Preemergence herbicidal evaluation. It is filed as in vivo, Oryza sativa, (L.) Tebonnet. The conditions noted are these: rated 4-5 weeks after treatment; for ORYSAT rating: preemergence, 0-9 scale. The source says:
Results of herbicide evaluation are expressed on a rating scale (0-9). The scale is based upon a visual observation of plant stand, vigor, malformation, size, chlorosis and overall plant appearance as compared with a control.
The preemergence herbicidal activity of the test compounds of the present invention is exemplified by the following tests in which the seeds of a variety of monocotyledonous and dicotyledonous plants are separately mixed with potting soil and planted on top of approximately one inch of soil in separate pint cups. After planting, the cups are sprayed with the selected aqueous acetone solution containing test compound in sufficient quantity to provide the equivalent of about 0.0156 to 0.500 kg per hectare of test compound per cup. The treated cups are then placed on greenhouse benches, watered and cared for in accordance with conventional greenhouse procedures. From four to five weeks after treatment, the tests are terminated and each cup is examined and rated according to the rating system provided in Example 37.
The compounds evaluated are reported by compound number given in Example 37.

The subject of assay [1] is ECHORC (Watergrass (Calif.)). The assay is described as follows: Preemergence weed control under flooded paddy conditions. It is filed as in vivo, Echinochloa oryzoides. The conditions noted are these: rated 3-4 weeks after treatment. An outline of the steps: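 First, seeds or propagules go into the top 0.5 cm of silt loam; next, water is held 1.5 to 3 cm over the soil; then compound (50/50 acetone/water) is pipetted into it at about 0.0313 to 0.500 kg/ha; finally plants are rated visually 0-9 after three to four weeks.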

For assay [2], the system named is CHEAL (Lambsquarters, Common). The assay is described as follows: Preemergence herbicidal evaluation. It is filed as in vivo, Chenopodium album. The conditions noted are these: rated 4-5 weeks after treatment; for CHEAL rating: preemergence, 0-9 scale. An outline of the steps:
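Each species is sown separately in potting soil over roughly an inch of soil before any emergence. The soil surface then receives an aqueous acetone spray delivering about 0.0156 to 0.500 kg/ha of compound. After four to five weeks, injury is scored from 0 to 9 relative to a control.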

[3] abbreviates: rate 0.0313 kg/ha, rating scale 0-9.
Where [4] appears, read: rate 0.0625 kg/ha, rating scale 0-9.
[5] abbreviates: rate 0.1250 kg/ha, rating scale 0-9.
[6] abbreviates: rate 0.2500 kg/ha, rating scale 0-9.
[7] abbreviates: rate 0.0156 kg/ha, rating scale 0-9.

In the case of `Cn1c(C(F)(F)F)cc(=O)n(-c2cc(N=C3SCC(=O)N3Cc3ccccc3Cl)c(Cl)cc2F)c1=O` [Compound 143], the “herbicidal effect rating, CYPSE” value with CYPSE (Flatsedge) (0.0313 kg/ha), in the assay with CYPSE (Flatsedge) (0.0625 kg/ha), with CYPSE (Flatsedge) (0.1250 kg/ha) and with CYPSE (Flatsedge) (0.2500 kg/ha) was 0.0 each time. Besides, the “herbicidal rating ECHCG” value in the assay with ECHCG (Barnyardgrass) (rate 0.0156 kg/ha) was determined as 1.0; with ECHCG (Barnyardgrass) (rate 0.0313 kg/ha), 2.0; in the assay on ECHCG (Barnyardgrass) (rate 0.0625 kg/ha) it was 1.0. Also, the “Preemergence herbicidal rating ORYSAT” value with ORYSAT (Rice, Tebonnet) (setting [3]) came to 0.0; in the assay with ORYSAT (Rice, Tebonnet) (setting [4]), 0.0; in the assay with ORYSAT (Rice, Tebonnet) (setting [5]) it was 0.0; with ORYSAT (Rice, Tebonnet) (setting [6]), 1.0. For the same compound, the “herbicidal effect rating, ECHORC” value turned out to be 5.0 in assay [1] (0.0313 kg/ha), 7.0 in assay [1] (0.0625 kg/ha), 9.0 in assay [1] (0.1250 kg/ha) and 9.0 in assay [1] (0.2500 kg/ha). Moreover, the “Preemergence herbicidal rating CHEAL” value in assay [2] (setting [3]) came out at 7.0; in assay [2] (setting [4]), 7.0; in assay [2] (setting [5]), 9.0; in assay [2] (setting [6]), 9.0.

Turning to `C#CC(C)N1C(=O)CSC1=Nc1cc(-n2c(=O)cc(C(F)(F)F)n(C)c2=O)c(F)cc1Cl` (stereo not shown) [Compound 165, 3-{4-Chloro-2-fluoro-5-{[3-(1-methyl-2-propynyl)-4-oxo-2-thiazolidinylidene]amino}phenyl}-1-methyl-6-(trifluoromethyl)-2,4(1H,3H)-pyrimidinedione], the “herbicidal effect rating, CYPSE” value is reported as 0.0 in the assay with CYPSE (Flatsedge) (0.0313 kg/ha), 0.0 with CYPSE (Flatsedge) (0.1250 kg/ha) and 3.0 in the assay on CYPSE (Flatsedge) (0.2500 kg/ha). In addition, the “herbicidal rating ECHCG” value in the assay on ECHCG (Barnyardgrass) (rate 0.0156 kg/ha) turned out to be 2.0; in the assay on ECHCG (Barnyardgrass) (rate 0.0313 kg/ha), 4.0; in the assay with ECHCG (Barnyardgrass) (rate 0.0625 kg/ha), 3.0; in the assay with ECHCG (Barnyardgrass) (rate 0.1250 kg/ha), 5.0. Further, the “Preemergence herbicidal rating ORYSAT” value worked out at 0.0 with ORYSAT (Rice, Tebonnet) (0.0156 kg/ha); 0.0 in the assay with ORYSAT (Rice, Tebonnet) (0.0313 kg/ha); 0.0 in the assay with ORYSAT (Rice, Tebonnet) (0.0625 kg/ha); 1.0 with ORYSAT (Rice, Tebonnet) (0.1250 kg/ha); 3.0 in the assay on ORYSAT (Rice, Tebonnet) (0.2500 kg/ha); 5.0 in the assay with ORYSAT (Rice, Tebonnet) (0.5000 kg/ha). Besides, the “herbicidal effect rating, ECHORC” value in assay [1] (0.0313 kg/ha), in assay [1] (0.0625 kg/ha), in assay [1] (0.1250 kg/ha) and in assay [1] (0.2500 kg/ha) was 9.0 each time. In addition, the “Preemergence herbicidal rating CHEAL” value in assay [2] (0.0156 kg/ha) came out at 4.0; in assay [2] (0.0313 kg/ha), 9.0; in assay [2] (0.0625 kg/ha) it was 9.0; in assay [2] (0.1250 kg/ha), 9.0; in assay [2] (0.2500 kg/ha), 9.0; in assay [2] (0.5000 kg/ha), 9.0.

Take `CN1C(=O)C(CC(=O)NO)SC1=Nc1cc(-n2c(=O)cc(C(F)(F)F)n(C)c2=O)c(F)cc1Cl` (stereo not shown) [Compound 162, 2-{{2-Chloro-5-[3,6-dihydro-3-methyl-2,6-dioxo-4-(trifluoromethyl)-1(2H)-pyrimidinyl]-4-fluorophenyl}imino}-3-methyl-4-oxo-5-thiazolidineacetohydroxamic acid]: the “herbicidal effect rating, CYPSE” value in the assay with CYPSE (Flatsedge) (0.1250 kg/ha) and with CYPSE (Flatsedge) (0.2500 kg/ha) was 9.0 throughout. Also, the “herbicidal rating ECHCG” value in the assay on ECHCG (Barnyardgrass) (rate 0.0156 kg/ha), in the assay with ECHCG (Barnyardgrass) (rate 0.0313 kg/ha) and in the assay on ECHCG (Barnyardgrass) (rate 0.0625 kg/ha) was 0.0 in each case. For the same compound, the “Preemergence herbicidal rating ORYSAT” value is reported as 2.0 with ORYSAT (Rice, Tebonnet) (0.0156 kg/ha); 3.0 in the assay with ORYSAT (Rice, Tebonnet) (0.0313 kg/ha); 5.0 in the assay on ORYSAT (Rice, Tebonnet) (0.0625 kg/ha); 6.0 with ORYSAT (Rice, Tebonnet) (0.1250 kg/ha); 8.0 with ORYSAT (Rice, Tebonnet) (0.2500 kg/ha). Also, the “herbicidal effect rating, ECHORC” value in assay [1] (0.0313 kg/ha) is recorded as 6.0; in assay [1] (0.0625 kg/ha) it was 7.0; in assay [1] (0.1250 kg/ha), 8.0; in assay [1] (0.2500 kg/ha) it was 8.0. Besides, the “Preemergence herbicidal rating CHEAL” value in assay [2] (0.0156 kg/ha), in assay [2] (0.0313 kg/ha), in assay [2] (0.0625 kg/ha), in assay [2] (0.1250 kg/ha) and in assay [2] (0.2500 kg/ha) was 9.0 each time.

With `CCOC(=O)CN1C(=O)C(CC(=O)OCCF)SC1=Nc1cc(-n2c(=O)cc(C(F)(F)F)n(C)c2=O)c(F)cc1Cl` (stereo not shown) [Compound 82, 2-{{2-Chloro-5-[3,6-dihydro-3-methyl-2,6-dioxo-4-(trifluoromethyl)-1(2H)-pyrimidinyl]-4-fluoro-phenyl}imino}-4-oxo-3,5-thiazolidinediacetic acid, 3-ethyl 2-fluoroethyl ester], the “CYPSE herbicidal effect rating” value with CYPSE (Flatsedge) (0.0313 kg/ha) turned out to be 0.0; in the assay on CYPSE (Flatsedge) (0.0625 kg/ha), 0.0; with CYPSE (Flatsedge) (0.1250 kg/ha), 2.0; in the assay on CYPSE (Flatsedge) (0.2500 kg/ha), 4.0. The ECHCG herbicidal rating in the assay with ECHCG (Barnyardgrass) (rate 0.0158 kg/ha), with ECHCG (Barnyardgrass) (rate 0.0315 kg/ha) and with ECHCG (Barnyardgrass) (rate 0.0630 kg/ha) was 9.0 throughout. Also, the ORYSAT rating worked out at 0.0 in the assay on ORYSAT (Rice, Tebonnet) (0.0156 kg/ha); 0.0 in the assay with ORYSAT (Rice, Tebonnet) (0.0313 kg/ha); 0.0 with ORYSAT (Rice, Tebonnet) (0.0625 kg/ha); 0.0 with ORYSAT (Rice, Tebonnet) (0.1250 kg/ha); 0.0 with ORYSAT (Rice, Tebonnet) (0.2500 kg/ha). Also, the “ECHORC herbicidal effect rating” value in assay [1] (0.0313 kg/ha) was determined as 4.0; in assay [1] (0.0625 kg/ha), 4.0; in assay [1] (0.1250 kg/ha) it was 6.0; in assay [1] (0.2500 kg/ha), 9.0. The CHEAL rating in assay [2] (0.0156 kg/ha), in assay [2] (0.0313 kg/ha), in assay [2] (0.0625 kg/ha), in assay [2] (0.1250 kg/ha) and in assay [2] (0.2500 kg/ha) was 9.0 in each case.

For `Cc1cccc(CN2C(=O)CSC2=Nc2cc(-n3c(=O)cc(C(F)(F)F)n(C)c3=O)c(F)cc2Cl)c1` [Compound 130, 3-{4-Chloro-2-fluoro-5-{[3-(m-methylbenzyl)-4-oxo-2-thiazolidinylidene]amino}phenyl}-1-methyl-6-(trifluoromethyl)-2,4 (1H, 3H)-pyrimidinedione], the “herbicidal effect rating, CYPSE” value in the assay with CYPSE (Flatsedge) (0.0313 kg/ha) came to 5.0; with CYPSE (Flatsedge) (0.0625 kg/ha), 5.0; with CYPSE (Flatsedge) (0.1250 kg/ha), 0.0; in the assay on CYPSE (Flatsedge) (0.2500 kg/ha), 7.0. Further, the “herbicidal rating ECHCG” value is 2.0 with ECHCG (Barnyardgrass) (rate 0.0156 kg/ha), 2.0 in the assay with ECHCG (Barnyardgrass) (rate 0.0313 kg/ha) and 3.0 in the assay with ECHCG (Barnyardgrass) (rate 0.0625 kg/ha). The “Preemergence herbicidal rating ORYSAT” value in the assay on ORYSAT (Rice, Tebonnet) (setting [7]) is given as 0.0; in the assay on ORYSAT (Rice, Tebonnet) (setting [3]), 0.0; in the assay with ORYSAT (Rice, Tebonnet) (setting [4]) it was 1.0; in the assay on ORYSAT (Rice, Tebonnet) (setting [5]), 3.0; in the assay on ORYSAT (Rice, Tebonnet) (setting [6]) it was 6.0. Besides, the “herbicidal effect rating, ECHORC” value in assay [1] (0.0313 kg/ha) was determined as 0.0; in assay [1] (0.0625 kg/ha) it was 2.0; in assay [1] (0.1250 kg/ha) it was 3.0; in assay [1] (0.2500 kg/ha), 4.0. Besides, the “Preemergence herbicidal rating CHEAL” value in assay [2] (setting [7]), in assay [2] (setting [3]), in assay [2] (setting [4]), in assay [2] (setting [5]) and in assay [2] (setting [6]) was 9.0 in each case.
